Experimental data published in patent US7192728B2, “Screening assays for agents that alter inhibitor of apoptosis (IAP) protein regulation of caspase activity” (The Burnham Institute, priority 1997, dated 2007).

Assays:
pro-caspase-9 [1] = molecular target: T1, pro-caspase-9 (Homo sapiens, UniProt P55211); experiment: GST pull-down binding of in vitro translated pro-caspase-9; conditions: about 2 μM GST protein on glutathione-Sepharose
T1 construct: in vitro translated ^35S-labeled pro-caspase-9 and Apaf-1 were incubated individually or together; His6; made in house; host or cells: coupled in vitro transcription/translation in reticulocyte lysate (TNT kit, Promega)
T1 sequence (P55211 1-416): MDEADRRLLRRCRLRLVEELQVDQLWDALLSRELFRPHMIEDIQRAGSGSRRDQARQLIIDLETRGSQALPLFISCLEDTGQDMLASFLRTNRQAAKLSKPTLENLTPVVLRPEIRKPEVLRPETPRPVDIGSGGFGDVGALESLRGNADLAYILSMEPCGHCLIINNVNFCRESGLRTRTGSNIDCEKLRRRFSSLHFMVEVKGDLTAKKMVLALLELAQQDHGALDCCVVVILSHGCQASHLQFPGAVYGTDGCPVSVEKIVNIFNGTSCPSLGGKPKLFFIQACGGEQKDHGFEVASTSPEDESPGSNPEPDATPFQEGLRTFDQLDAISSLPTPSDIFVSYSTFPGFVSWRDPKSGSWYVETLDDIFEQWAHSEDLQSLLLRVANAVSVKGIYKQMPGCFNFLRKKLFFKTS
Method: After extensive washing, bound proteins were analyzed by SDS-PAGE and autoradiography. As a positive control, 1.5 μl of the in vitro translated reaction (IVT) was analyzed.

293T cells = experiment: Caspase-9-induced pro-caspase-3 processing and apoptosis in transfected 293T cells; assay type: cell-based, human; conditions: co-transfection with FLAG-caspase-9; for number of apoptotic 293T cells (in words): DAPI staining
Method: (§1) Co-immunoprecipitations and immunoblot assays were performed as follows. […] Cells were collected 24–48 hrs later by centrifugation, washed in ice cold PBS and lysed for 20 minutes in lysis buffer (10 mM Hepes, 142 mM KCl, 5 mM MgCl2, 1 mM EGTA, 0.2% NP-40). Lysates were cleared by centrifugation at 16,000×g for 30 minutes. Myc-tagged IAP proteins were immunoprecipitated with 40 μl of anti-myc 9E10 antibody immobilized on Protein G-Sepharose (Santa Cruz) for 2 hrs. Immunoprecipitates were washed 3 times with lysis buffer, and bound proteins separated by SDS-PAGE and analyzed by immunoblotting using antibodies specific for the FLAG epitope (Kodak, Inc.), myc-epitope, or caspase-3.
Cell lysates were prepared 16 hr later for either (A) immunoblot analysis of caspase-3, or (B) DEVD-AFC. Immunoblot analysis of pro-caspase-3 was performed with lysates from cells induced to undergo apoptosis by overexpressing pro-caspase-9 in the absence or presence of the IAPs. For DEVD-AFC analysis, lysates were normalized for total protein content and assayed for hydrolysis of DEVD-AFC as described above. […] In panel D, IAP proteins were immunoprecipitated with anti-myc antibody immobilized on protein G-Sepharose at ˜16 hours post-transfection. Immunoblot analysis with anti-FLAG antibody was employed for detection of pro-caspase-9 in the resulting immune complexes. Lysates from the same cell (50 μg per lane) were also analyzed by immunoblotting using anti-FLAG and anti-myc antibodies to verify expression of […].

pro-caspase-9 [2] = molecular target: T1, pro-caspase-9; experiment: In vitro reconstituted pro-caspase-9 processing (Apaf-1, cytochrome c, dATP); assay type: biochemical; conditions: 0.1 μM protein; Apaf-1, 10 μM cytochrome c, 1 mM dATP
Method: For the results shown in FIGS. 5A and 5B, in vitro translated ^35S-labeled pro-caspase-9 and Apaf-1 were incubated individually or together with 10 μM cytochrome c and 1 mM dATP. Processing of pro-caspase-9 in the absence or presence of 0.1 μM of the indicated GST-IAP or 0.1 μM Bcl-XL was then monitored by SDS-PAGE and autoradiography.
To assay caspase-9 activation in vitro, one microgram of plasmids containing cDNAs encoding pro-caspase-9 (pET21(b)-Mch-6) or Apaf-1 (pcDNA3-Apaf-1) was in vitro transcribed and translated in the presence of [^35S]-L-methionine using a coupled transcription/translation TNT kit (Promega) according to manufacturer's instructions. Proteins were desalted and exchanged into Buffer A with Bio-spin P-6 columns (BioRad). […] The reactions were analyzed by SDS-PAGE and autoradiography. For some experiments, in vitro translated His6-caspase-9 was purified by metal chromatography.

[3] = tested on: DEVD-pNA hydrolysis activity in 293 cell cytosolic extracts; experiment: Cytochrome c/dATP-induced caspase activation (DEVD hydrolysis) in 293 cell cytosolic extracts; assay type: biochemical, human
Method: Cells were washed with ice cold buffer A (20 mM Hepes (pH 7.5), 10 mM KCl, 1.5 mM MgCl2, 1 mM EDTA, 1 mM DTT and 0.1 mM PMSF) and suspended in 1 vol buffer A, then incubated on ice for 20 min. 293 cells were disrupted by passage 15× through a 26 gauge needle and Jurkat T cells were disrupted by dounce homogenization in 2 ml using 15 strokes with a pestle B. Cell extracts (10–15 mg total protein/ml) were clarified by centrifugation at 16,000×g for 30 min, then the NaCl concentration was increased by 50 mM. Cytosolic fractions were used immediately or stored frozen at −80° C.
Caspase activity was assayed by release of either 7-amino-4-trifluoromethyl-coumarin (AFC) or p-nitroanilide (pNA) from benzylyoxycarbonyl-DEVD (SEQ ID NO: 2) or benzylyoxycarbonyl-YVAD (SEQ ID NO: 3) synthetic peptides using a Molecular Devices Spectromax 340 for AFC labeled peptides or Perkin/Elmer LS50B for pNA labeled peptides (see Example II; see, also, Zhou et al., supra, 1997). Cytosolic extracts from 293 cells or Jurkat T cells were used directly (negative control) or were treated with 1 μM cytochrome c and 1 mM dATP or with cytochrome c, dATP and 0.2 μM GST-XIAP. Additional control reactions were performed by substituting 2 μM GST-Bcl-2, GST-Bax, GST-NM23 or GST-CD40 cytosolic domain, or 5 μM His6-S5a protein for GST-XIAP. DEVD-pNA hydrolysis was measured at various times and multiple experiments were performed using several different GST-XIAP preparations.

pro-caspase-9 [4] = experiment: Cytochrome c-induced processing of pro-caspase-9 in 293 cytosolic extracts; assay type: biochemical, human; conditions: for cytochrome c-induced pro-caspase-9 processing (in words): 0.2 μM GST-IAP, 30 min at 30° C.
Method: Cytochrome c induced processing of pro-caspase-9 was subsequently monitored by SDS-PAGE and autoradiography.
Pro-caspase-9 inhibition by Ac-DEVD-fmk, zVAD-fmk and XIAP was compared as follows. In vitro translated ^35S-labeled pro-caspase-9 was added to cytosolic extracts from 293 cells containing 10 μM cytochrome c and 1 mM dATP. Samples were incubated at 30° C. for 30 minutes in the presence of the indicated concentrations of inhibitors. Proteins were separated on SDS-PAGE gels, dried directly, and exposed to film.

caspase-3 = molecular target: T2, caspase-3 (Homo sapiens, UniProt P42574); experiment: GST pull-down binding to caspase-3; conditions: glutathione-Sepharose beads, immunoblot
T2 construct: to produce the 17–20 kDa mature, fully processed large subunit of the active caspase-3 enzyme; a smaller, fully processed, subunit of about 11 kDa; His6; made in house; host or cells: E. coli BL21(DE3)pLysS
T2 sequence (P42574 29-175 limits assumed): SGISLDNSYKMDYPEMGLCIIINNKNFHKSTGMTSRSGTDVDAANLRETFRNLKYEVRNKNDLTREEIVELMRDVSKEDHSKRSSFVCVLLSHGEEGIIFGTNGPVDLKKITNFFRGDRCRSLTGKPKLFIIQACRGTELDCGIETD
T2 sequence (P42574 176-277 limits assumed): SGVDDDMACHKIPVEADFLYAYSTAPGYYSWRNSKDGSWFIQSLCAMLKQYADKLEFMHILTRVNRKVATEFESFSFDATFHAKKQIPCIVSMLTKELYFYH
Method: Following incubation at 4° C. for 60 min, the beads were removed by centrifugation and washed twice with 100 vol 50 mM Tris (pH 7.5), 150 mM KCl, 2 mM DTT and 0.025% Triton-X100, then subjected to SDS-PAGE and immunoblot assay (see Example I.B.3).

pro-caspase-9 [5] = experiment: Co-immunoprecipitation of pro-caspase-9 with myc-tagged IAPs in 293T cells; assay type: binding, human; conditions: anti-myc immunoprecipitation, anti-FLAG blot
Method: as §1
Cell lysates were prepared 16 hr later for either (A) immunoblot analysis of caspase-3, or (B) DEVD-AFC. Immunoblot analysis of pro-caspase-3 was performed with lysates from cells induced to undergo apoptosis by overexpressing pro-caspase-9 in the absence or presence of the IAPs. For DEVD-AFC analysis, lysates were normalized for total protein content and assayed for hydrolysis of DEVD-AFC as described above. […] Lysates from the same cell (50 μg per lane) were also analyzed by immunoblotting using anti-FLAG and anti-myc antibodies to verify expression of […].

| Substance | association with in vitro translated pro-caspase-9 (in words) (pro-caspase-9 [1]) | caspase-9-induced cleavage of pro-caspase-3 and Ac-DEVD-AFC cleavage activity (in words) (293T cells) | number of apoptotic 293T cells (in words) (293T cells) | pro-caspase-9 processing in reconstituted system (in words) (pro-caspase-9 [2]) | DEVD-pNA hydrolysis, ΔA405 after 15 min ([3]; 293 extracts + cytochrome c/dATP, GST-XIAP 0.2 μM, GST controls 2 μM, His6-S5a 5 μM, untreated ≈0.01) | reduction of cytochrome c/dATP-induced DEVD-pNA hydrolyzing activity ([3]; extracts of cells transfected with pcDNA3-XIAP versus control plasmid) | potency relative to baculovirus p35 protein at inhibiting cytochrome c-induced processing of pro-caspase-9 (pro-caspase-9 [4]) | cytochrome c-induced pro-caspase-9 processing (in words) (pro-caspase-9 [4]) | concentration to completely abolish cytochrome c-mediated processing of pro-caspase-9 (pro-caspase-9 [4]; 10 μM cytochrome c, 1 mM dATP, 30° C., 30 min) | binding of caspase-3 (in words) (caspase-3) | co-immunoprecipitation of the zymogen form of caspase-9 (in words) (pro-caspase-9 [5]) | DEVD hydrolysis in activated 293 cell cytosolic extracts (in words) ([3]; 3 μM, extracts activated 30 min with cytochrome c and dATP) |
| --- | --- | --- | --- | --- | --- | --- | --- | --- | --- | --- | --- | --- |
| XIAP: X chromosome linked inhibitor of apoptosis protein (Genbank U32974), used mostly as recombinant GST fusion or expressed from plasmid | associated with pro-caspase-9 | markedly reduced | a reduction in the number of apoptotic 293T cells | completely blocked | approximately the same as untreated control extracts | greater than 50% | about 5 fold | nearly completely abolished | less than 0.2 μM | Specific binding | co-immunoprecipitated |  |
| c-IAP-2: cellular IAP protein c-IAP-2/HIAP-1/hMIHC, recombinant GST fusion or myc-tagged | associated with pro-caspase-9 | markedly reduced | a reduction in the number of apoptotic 293T cells | completely blocked |  |  |  | inhibited pro-caspase-9 processing, albeit to a lesser extent |  | bound | co-immunoprecipitated | inhibited DEVD hydrolysis |
